These results are taken from ChEMBL document CHEMBL1155248, “Structure-based shape pharmacophore modeling for the discovery of novel anesthetic compounds” (Bioorg Med Chem, 2009).

SMILES strings stand for the structures.

A short description of experiment [1]: Binding affinity to apoferritin by isothermal titration calorimetry. (Isothermal titration calorimetry measures the heat released or taken up as one component is titrated into another.)
Experiment [2] can be described thus: Agonist activity at GABAA assessed as enhancement of channel current. Format: functional.

As to `CCC(C)c1cccc(C(C)CC)c1O` (centres undefined), the pEC50 (as a rule, the EC50 on a negative log10 scale, so that one unit is a factor of ten) in experiment [1] was determined as 5.6.

As to `CC(C)c1ccccc1O`, in experiment [1], the pEC50 is 4.4. The equilibrium dissociation constant (Kd) – broadly, a measure of binding affinity in units of concentration – in experiment [2] came out at 500 nM.

The compound `Oc1ccccc1` [PHENOL] displayed a pEC50 in experiment [1] of 3. Moreover, the Kd in experiment [2] came out at 3800 nM.

Regarding `Cc1cccc(C(C)(C)C)c1O`, the pEC50 in experiment [1] amounted to 6.3.

Compound `CCC(C)c1ccc(O)c(C(C)CC)c1` (centres undefined) returned a pEC50 in experiment [1] of 4.5.

For the compound `CC(C)c1cc(O)c(O)c(C(C)C)c1`, the pEC50 in experiment [1] came to 4.4.

`CC(C)(C)c1cc(O)cc(C(C)(C)C)c1` yielded a pEC50 in experiment [1] of 4.

`CC(C)c1cc(I)cc(C(C)C)c1O` had a pEC50 in experiment [1] of 5.

`CCc1cccc(CC)c1Br` yielded a pEC50 in experiment [1] of 4.7.

`CCc1cccc(CC)c1N=C=S`: the pEC50 in experiment [1] is 4.8.

With `CCc1cccc(CC)c1N=C=O`, in experiment [1], the pEC50 is given as 4.6.

In experiment [1], `CC(C)c1cccc(C(C)C)c1O` [PROPOFOL] registered a pEC50 of 5.7. Also, the dissociation constant (Kd) in experiment [2] was 230 nM.

In experiment [1], `Cc1cccc(C)c1O` yielded a pEC50 of 3.9. The Kd in experiment [2] was 360 nM.

The compound `CCc1cccc(CC)c1O` yielded a pEC50 in experiment [1] of 4.9. Besides, the Kd in experiment [2] was found to be 310 nM.
